Measurements reported in patent publication US7524880B2, “Crystalline form of a substituted pyrrolidine compound” (Theravance, Inc., priority 2004, dated 2009).

Experiments:
[1] = target: T1, M3 muscarinic receptor subtype (hM3) (Homo sapiens, UniProt P20309); experiment: Radioligand binding assay ([3H]-NMS displacement, CHO cell membranes); conditions: [3H]-NMS 1 nM, 60 minutes at 37° C.
T1 construct: expressed in transfected cells
Experimental: A. Membrane Preparation from Cells Expressing hM1, hM2, hM3 and hM4 Muscarinic Receptor Subtypes
CHO cell lines stably expressing cloned human hM1, hM2, hM3 and hM4 muscarinic receptor subtypes, respectively, were grown to near confluency in medium consisting of HAM's F-12 supplemented with 10% FBS and 250 μg/mL Geneticin. The cells were grown in a 5% CO2, 37° C. incubator and lifted with 2 mM EDTA in dPBS. Cells were collected by 5 minute centrifugation at 650×g, and cell pellets were either stored frozen at −80° C. or membranes were prepared immediately. For membrane preparation, cell pellets were resuspended in lysis buffer and homogenized with a Polytron PT-2100 tissue disrupter (Kinematica AG; 20 seconds×2 bursts). […] The protein concentration of the membrane suspension was determined by the method described in Lowry, O. et al., […] 193:265 (1951). […]
Radioligand binding assays were performed in 96-well microtiter plates in a total assay volume of 100 μL. […] Filter plates were rinsed three times with wash buffer (10 mM HEPES) to remove unbound radioactivity. […] The plates were then counted in a PerkinElmer Topcount liquid scintillation counter (PerkinElmer Inc., Wellesley, Mass.). Binding data were analyzed by nonlinear regression analysis with the GraphPad Prism Software package (GraphPad Software, Inc., San Diego, Calif.) using the one-site competition model. […]

hM2 receptor = target: T2, hM2 receptor (Homo sapiens, UniProt P08172); experiment: Blockade of agonist-mediated [35S]GTPγS binding; type: biochemical; conditions: CHO-K1 cells expressing the hM2 receptor (membranes); read-out: Ki value for blockade of oxotremorine-stimulated [35S]GTPγS binding
T2 construct: expressed in transfected cells; host or cells: CHO-K1 cells
T2 sequence (P08172 1-466): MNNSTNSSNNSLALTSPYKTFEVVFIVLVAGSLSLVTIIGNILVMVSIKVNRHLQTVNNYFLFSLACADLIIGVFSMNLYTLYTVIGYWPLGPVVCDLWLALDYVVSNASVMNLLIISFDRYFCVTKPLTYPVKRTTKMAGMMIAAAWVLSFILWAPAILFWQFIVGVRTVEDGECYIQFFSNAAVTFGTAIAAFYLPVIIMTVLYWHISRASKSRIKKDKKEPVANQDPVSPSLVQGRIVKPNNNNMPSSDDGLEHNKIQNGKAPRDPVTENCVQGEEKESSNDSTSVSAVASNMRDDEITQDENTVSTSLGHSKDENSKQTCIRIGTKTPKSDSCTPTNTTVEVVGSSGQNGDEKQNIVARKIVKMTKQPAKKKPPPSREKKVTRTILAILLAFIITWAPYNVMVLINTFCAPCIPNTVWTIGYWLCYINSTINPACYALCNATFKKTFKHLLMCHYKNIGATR
Experimental: B. Blockade of Agonist-Mediated [^35 S]GTPγS Binding
In a second functional assay, the functional potency of a test compound is determined by measuring the ability of the compound to block oxotremorine-stimulated [^35S]GTPγS binding in CHO-K1 cells expressing the hM2 receptor.
At the time of use, frozen membranes were thawed and then diluted in assay buffer with a final target tissue concentration of 5-10 μg protein per well. The membranes were briefly homogenized using a Polytron PT-2100 tissue disrupter and then added to the assay plates.
The EC90 value (effective concentration for 90% maximal response) for stimulation of [^35S]GTPγS binding by the agonist oxotremorine was determined in each experiment.
The assay plates were then incubated at 37° C. for 60 minutes. The assay plates were filtered over 1% BSA-pretreated GF/B filters using a PerkinElmer 96-well harvester. The plates were rinsed with ice-cold wash buffer for 3×3 seconds and then air or vacuum dried. Microscint-20 scintillation liquid (50 μL) was added to each well, and each plate was sealed and radioactivity counted on a topcounter (PerkinElmer). Data were analyzed by nonlinear regression analysis with the GraphPad Prism Software package (GraphPad Software, Inc., San Diego, Calif.) using the non-linear regression, one-site competition equation. […]

T1 sequence (P20309 whole entry): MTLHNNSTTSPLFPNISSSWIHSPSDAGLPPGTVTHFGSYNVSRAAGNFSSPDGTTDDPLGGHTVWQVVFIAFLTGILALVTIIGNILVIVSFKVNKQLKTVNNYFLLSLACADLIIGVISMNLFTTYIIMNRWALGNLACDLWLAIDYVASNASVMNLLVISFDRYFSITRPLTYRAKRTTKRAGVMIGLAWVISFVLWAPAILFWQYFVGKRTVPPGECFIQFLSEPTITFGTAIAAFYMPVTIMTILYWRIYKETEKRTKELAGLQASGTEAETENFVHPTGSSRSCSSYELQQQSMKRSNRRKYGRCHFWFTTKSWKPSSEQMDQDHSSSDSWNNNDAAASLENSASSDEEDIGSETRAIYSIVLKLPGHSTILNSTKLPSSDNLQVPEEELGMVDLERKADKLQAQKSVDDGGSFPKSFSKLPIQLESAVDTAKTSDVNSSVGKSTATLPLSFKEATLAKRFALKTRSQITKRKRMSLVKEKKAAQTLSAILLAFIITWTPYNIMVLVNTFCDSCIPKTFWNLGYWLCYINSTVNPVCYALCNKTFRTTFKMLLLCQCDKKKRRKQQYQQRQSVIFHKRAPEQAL

CNCCCCCCCCN1CC[C@@H](C(C(N)=O)(c2ccccc2)c2ccccc2)C1 [compound of formula I, 2-[(S)-1-(8-methylaminooctyl)pyrrolidin-3-yl]-2,2-diphenylacetamide]
Ki [1]: ~0.96 nM | Ki (hM2 receptor): < 5 nM
